In PubChem BioAssay (NCI):
Where “and” joins values, the source holds several entries; their conditions need not be identical. Equal values may be shown once.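 Grown in 96-well plates, cells were treated for 48 hours with each compound at five concentrations. Insufficient inhibition: endpoint recorded as highest concentration tested. GI50: concentration for 50% inhibition of growth. TGI marks complete inhibition of growth.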

Tests used:
Experiment in all cases: NCI tumour cell line growth inhibition, 48 h
DLD-1 colon = test system: DLD-1 colon
DMS 114 small cell lung = test system: DMS 114 small cell lung
DMS 273 small cell lung = test system: DMS 273 small cell lung
HOP-18 NSCLC = test system: HOP-18 NSCLC
KM20L2 colon = test system: KM20L2 colon
LXFL 529 NSCLC = test system: LXFL 529 NSCLC
NCI-H226 lung = test system: NCI-H226 lung
RXF-631 renal = test system: RXF-631 renal
M19-MEL melanoma = test system: M19-MEL melanoma
SNB-78 CNS = test system: SNB-78 CNS
XF 498 CNS = test system: XF 498 CNS

SMILES: Cc1ccc(S(=O)(=O)N/N=C2\C(=O)C3CC2C(Cl)C3Cl)cc1 (centres undefined)
- TGI (DLD-1 colon): > 100 µM
- TGI (DMS 114 small cell lung): > 100 µM
- TGI (DMS 273 small cell lung): > 100 µM
- TGI (HOP-18 NSCLC): > 100 µM
- TGI (KM20L2 colon): > 100 µM
- TGI (LXFL 529 NSCLC): > 100 µM
- TGI (NCI-H226 lung): > 100 µM
- TGI (RXF-631 renal): > 100 µM

SMILES: COc1ccc2c(c1)c(Cc1c(C)n(C)c3ccc(OC)cc13)c(C)n2C
- TGI (DLD-1 colon): > 100 µM
- TGI (DMS 114 small cell lung): > 100 µM
- TGI (DMS 273 small cell lung): > 100 µM
- TGI (HOP-18 NSCLC): > 100 µM
- TGI (KM20L2 colon): > 100 µM
- TGI (LXFL 529 NSCLC): > 100 µM
- TGI (M19-MEL melanoma): > 100 µM
- TGI (NCI-H226 lung): > 100 µM
- TGI (SNB-78 CNS): > 100 µM
- TGI (XF 498 CNS): > 100 µM

SMILES: CC(SC1=CC(=O)c2c(Cl)ccc(O)c2C1=O)C(=O)O (centres undefined)
- TGI (DLD-1 colon): 34.7 µM
- TGI (DMS 114 small cell lung): 38.4 µM
- TGI (DMS 273 small cell lung): 35.6 µM
- TGI (HOP-18 NSCLC): 75.8 µM
- TGI (KM20L2 colon): > 100 µM
- TGI (LXFL 529 NSCLC): 29.5 µM
- TGI (NCI-H226 lung): 57.3 µM
- TGI (SNB-78 CNS): 26.3 µM
- TGI (XF 498 CNS): 34.2 µM

SMILES: Cc1c(-c2ccccc2)c(-c2ccc(OCCN(C)C)cc2)n2ccccc12
- TGI (NCI-H226 lung): 30.9 µM

SMILES: N#Cc1cnn2c1n[n+]([O-])c1ccc(Cl)cc12
- TGI (NCI-H226 lung): 49.7 µM

SMILES: C[N+](C)(C)CC1Cc2ccccc2C1=O (centres undefined)
- TGI (NCI-H226 lung): > 10 µM

SMILES: Cc1sc2ncnc(NCCc3ccccc3)c2c1C
- TGI (NCI-H226 lung): 42.3 µM

SMILES: CSc1nc(=S)[nH]c2n[nH]c(C)c12
- TGI (NCI-H226 lung): > 100 µM

SMILES: CC(C#N)Nc1ccc(Oc2ccc(C(C)(C)c3ccc(Oc4ccc(NC(C)C#N)cc4)cc3)cc2)cc1 (centres undefined)
- TGI (NCI-H226 lung): > 100 µM

SMILES: O=C(Cc1ccccc1)N/N=C(/CCN1CCCC1)CC(c1ccccc1)c1c(O)c2ccccc2oc1=O (centres undefined)
- TGI (NCI-H226 lung): > 100 µM

SMILES: C/C(C=O)=C1\C(O)C[C@]1(C)C1CC(C)(C)CC1O (some centres undefined)
- TGI (DLD-1 colon): > 100 µM
- TGI (DMS 114 small cell lung): > 100 µM
- TGI (DMS 273 small cell lung): > 100 µM
- TGI (KM20L2 colon): > 100 µM
- TGI (LXFL 529 NSCLC): > 100 µM
- TGI (M19-MEL melanoma): > 100 µM
- TGI (NCI-H226 lung): > 100 µM
- TGI (SNB-78 CNS): > 100 µM

SMILES: COc1ccc(CCN2CCC(C#N)(c3ccc(OC)c(OC)c3)CC2)cc1OC
- TGI (DLD-1 colon): > 100 µM
- TGI (DMS 114 small cell lung): > 100 µM
- TGI (DMS 273 small cell lung): > 100 µM
- TGI (HOP-18 NSCLC): > 100 µM
- TGI (KM20L2 colon): > 100 µM
- TGI (LXFL 529 NSCLC): > 100 µM
- TGI (M19-MEL melanoma): > 100 µM
- TGI (NCI-H226 lung): > 100 µM
- TGI (XF 498 CNS): > 100 µM

SMILES: CCCCOC(=O)/C(CC(=O)C=C(C)C)=N\NS(=O)(=O)c1ccc(C)cc1
- TGI (DLD-1 colon): > 100 µM
- TGI (DMS 114 small cell lung): > 100 µM
- TGI (HOP-18 NSCLC): > 100 µM
- TGI (KM20L2 colon): > 100 µM
- TGI (LXFL 529 NSCLC): > 100 µM
- TGI (M19-MEL melanoma): > 100 µM
- TGI (NCI-H226 lung): > 100 µM
- TGI (SNB-78 CNS): > 100 µM
- TGI (XF 498 CNS): > 100 µM

SMILES: CC1C2CC(C(C3C(=O)C4CC3C(C)(C)C4C)C2=O)C1(C)C (centres undefined)
- TGI (NCI-H226 lung): > 100 µM

SMILES: C1CSCC2(COC2)CS1
- TGI (NCI-H226 lung): > 100 µM

SMILES: COc1ccc(NC(=O)C2=C(SC)C(C#N)C(=O)N=C2N)cc1 (centres undefined)
- TGI (NCI-H226 lung): > 100 µM

SMILES: O=C1/C(=C/c2cccc([N+](=O)[O-])c2)COc2ccccc21
- TGI (DLD-1 colon): 9.56 µM
- TGI (DMS 114 small cell lung): 8.14 µM
- TGI (HOP-18 NSCLC): 24.8 µM
- TGI (KM20L2 colon): > 100 µM
- TGI (LXFL 529 NSCLC): 7.79 µM
- TGI (M19-MEL melanoma): 5.49 µM
- TGI (NCI-H226 lung): 22.6 µM
- TGI (RXF-631 renal): 31.7 µM
- TGI (SNB-78 CNS): > 100 µM

SMILES: CCOC(=O)CNC(=O)C(CSC(=O)N(O)c1ccc(Br)cc1)NC(=O)CCC(N)C(=O)OCC (centres undefined)
- TGI (NCI-H226 lung): > 50 µM

SMILES: COc1ccccc1NC(=O)C(C#N)=C(SC)SC
- TGI (NCI-H226 lung): > 100 µM

SMILES: O=C1/C(=C/c2cccc([N+](=O)[O-])c2)CCCc2ccccc21
- TGI (NCI-H226 lung): 33.2 µM

SMILES: COc1ccc(/C=C/C(=O)NCC(NC(=O)/C=C/c2ccc(OC)c(OC)c2)C(=O)O)cc1OC (centres undefined)
- TGI (NCI-H226 lung): > 100 µM

SMILES: Clc1cc(Cl)cc(N2N=C(c3cccc(Nc4ccncc4)c3)CC2c2ccccc2)c1 (centres undefined)
- GI50 (NCI-H226 lung): 14 µM
- TGI (NCI-H226 lung): 38.7 µM

SMILES: O=C1C(NCCc2cc(Br)c(O)c(Br)c2)=CC(=O)c2ncccc21
- TGI (NCI-H226 lung): 8.52 µM

SMILES: O=C(CCN(CCO)CCO)Nc1ccc2c(c1)C(=O)c1ccc(NC(=O)CCN(CCO)CCO)cc1C2=O
- TGI (DMS 114 small cell lung): 19.6 µM
- TGI (DMS 273 small cell lung): 22.1 µM
- TGI (HOP-18 NSCLC): > 100 µM
- TGI (KM20L2 colon): > 100 µM
- TGI (LXFL 529 NSCLC): 16.2 µM
- TGI (M19-MEL melanoma): 26.6 µM
- TGI (NCI-H226 lung): 44.2 µM
- TGI (SNB-78 CNS): 54.8 µM
- TGI (XF 498 CNS): 25 µM

SMILES: COc1ccc2c(OC)c3ccoc3nc2c1O
- TGI (DLD-1 colon): > 100 µM
- TGI (DMS 114 small cell lung): > 100 µM
- TGI (HOP-18 NSCLC): > 100 µM
- TGI (KM20L2 colon): > 100 µM
- TGI (LXFL 529 NSCLC): > 100 µM
- TGI (M19-MEL melanoma): > 100 µM
- TGI (SNB-78 CNS): > 100 µM
- TGI (XF 498 CNS): > 100 µM

SMILES: CC(=NNC(=S)Nc1ccccc1C)c1cccc(C(C)=NNC(=S)Nc2ccccc2C)n1
- TGI (NCI-H226 lung): > 100 µM

SMILES: CN(CCO)CC(=O)CC(O)(C(F)(F)F)C(F)(F)F
- TGI (NCI-H226 lung): > 100 µM

SMILES: CCCCCCC(N)(CCCCCC)C(=O)Nn1c(C)ccc1C
- TGI (NCI-H226 lung): > 100 µM

SMILES: COC(=O)/C=C/c1cc(OC)c2c(c1)C(C(=O)OC)C(c1ccc(OC)c(OC)c1)O2 (centres undefined)
- TGI (NCI-H226 lung): > 100 µM and 25.6 µM

SMILES: Cc1ccc2c(ccc3c[n+]4ccccc4c(C)c32)c1
- TGI (NCI-H226 lung): 5.71 µM

SMILES: O=C(Nc1ccccc1)N1CCNC1=S
- TGI (NCI-H226 lung): > 100 µM

SMILES: CCOC(=O)[C@H]1C[C@@H](C(=O)c2ccccc2)N2N=C(c3ccc(Br)cc3)C=C[C@H]12
- TGI (NCI-H226 lung): > 100 µM

SMILES: N#CCCc1nc2ccc(Br)cc2c(=O)n1-c1ccc(O)c([N+](=O)[O-])c1
- TGI (DLD-1 colon): 34.7 µM
- TGI (KM20L2 colon): > 100 µM
- TGI (LXFL 529 NSCLC): 40 µM
- TGI (M19-MEL melanoma): 42.3 µM
- TGI (NCI-H226 lung): 43.3 µM
- TGI (RXF-631 renal): 33.9 µM
- TGI (SNB-78 CNS): 76.7 µM
- TGI (XF 498 CNS): 34.9 µM

SMILES: CC(=O)Nc1c(C)cc(OCC(=O)O)cc1C
- TGI (NCI-H226 lung): > 100 µM

SMILES: CCCCCCCCCC(=O)OCC1(CO)C/C(=C/CC(C(C)C)C(C)C)C(=O)O1 (centres undefined)
- TGI (NCI-H226 lung): > 100 µM

SMILES: Cc1nc2ccccc2nc1NS(=O)(=O)c1ccc(N)cc1
- TGI (DLD-1 colon): > 100 µM
- TGI (DMS 273 small cell lung): > 100 µM
- TGI (HOP-18 NSCLC): > 100 µM
- TGI (KM20L2 colon): > 100 µM
- TGI (LXFL 529 NSCLC): > 100 µM
- TGI (M19-MEL melanoma): > 100 µM
- TGI (NCI-H226 lung): > 100 µM
- TGI (RXF-631 renal): > 100 µM
- TGI (SNB-78 CNS): > 100 µM
- TGI (XF 498 CNS): > 100 µM

SMILES: O=C(CNC(=O)OCc1ccccc1)NCCCCC(NC(=O)OCc1ccccc1)C(=O)O (centres undefined)
- TGI (NCI-H226 lung): > 100 µM
